From US20240238281A1, “PIPERAZINE DERIVATIVES AND APPLICATION THEREOF” (priority 2021, published 2024)
“Also recorded” adds a separate entry of the source.

Legend:
MDR1-MDCKII cells = test: In vitro MDCK-MDR1 permeability; format: in vitro ADME; conditions: MDR1-MDCKII permeability and efflux rating
Description: (§1) MDR1-MDCKII cells (from the Netherlands Cancer Institute) were inoculated onto a 96-plate (from Corning) with a cell density of 2.5×10^5 cells/mL, and cultured for 4-7 days to form a co-polymeric cell monolayer. A Hank's equilibrium salt buffer (pH=7.40±0.05) containing 10 mM of 4-hydroxyethyl piperazine ethanesulfonic acid was used as a transport buffer. The bidirectional transport of the test compound at a concentration of 2 μM was tested, and the concentration of DMSO in the incubation system was controlled below 1%. After sample loading, the cell plate was placed at 37±1° C. for inoculation with 5% CO2 under a saturated humidity condition for 150 minutes. All samples were subjected to quantitative analysis using the LC-MS/MS method.
(§2) The apparent permeability coefficient (Papp, cm/s), the efflux ratio, and the recovery rate were calculated using the following formula.
(§3) The apparent permeability coefficient (Papp, cm/s) was calculated using the following formula: […]
(§4) DC/dt was the cumulative concentration (μM/s) of the compound at the receiving end per unit time; Vr was the volume of the solution at the receiving end (the solution volumes at the top and base ends were 0.075 mL and 0.250 mL, respectively); A was the relative surface area of the cell monolayer (0.0804 cm^2); and C0 was the initial concentration (nM) of a test sample at the administration end or the peak area ratio of a control sample.
(§5) The efflux ratio was calculated using the following formula: […]
(§6) The recovery rate was calculated using the following formula: […]
(§7) C0 was the initial concentration (nM) of the test sample at the administration end or the peak area ratio of the control sample; Vd was the volume of the administration end (0.075 mL on the top side and 0.250 mL on the base side); Cd and Cr were the final concentrations (nM) of the test sample at the administration end and the receiving end, or the peak area ratios of the control sample , respectively.

MDR1 = test: In vitro MDCK-MDR1 permeability; format: in vitro ADME; conditions: dog, MDCK-MDR1, pH 7.4, MDR1-MDCKII monolayer, 2 μM, 150 minutes
Description: as §1, §2, §3, §4, §5, §6, §7

MC3R = target: T1, MC3R (Homo sapiens, UniProt P41968); test: In vitro activity of MCR receptors, intracellular cAMP signal (HEK293T/MCR cell line), MC3R; format: cell-based
T1 construct: expressed in transfected cells
Description: Test purpose: to evaluate the agonistic effect of the compound on MCRs by detecting intracellular cAMP signal changes.
Cells were resuspended with 1×PBS+500 μM IBMX. 10 μL of the cell suspension was added into a 384-well plate to be tested, and the cell concentration was adjusted to 1×10^4 cells per well for later use. A pre-prepared solution of the compound to be tested was added, and dimethyl sulfoxide of the same volume was added to blank control wells. The test plate was centrifuged at 300 rpm for 1 minute, incubated at 37° C. for 30 minutes, and added with 5 μL of cAMP-d2 and 5 μL of a CAMP-cry antibody detection reagent. The test plate was centrifuged at 300 rpm for 1 minute, and incubated at room temperature for 60 minutes.

T1 sequence (P41968 whole entry): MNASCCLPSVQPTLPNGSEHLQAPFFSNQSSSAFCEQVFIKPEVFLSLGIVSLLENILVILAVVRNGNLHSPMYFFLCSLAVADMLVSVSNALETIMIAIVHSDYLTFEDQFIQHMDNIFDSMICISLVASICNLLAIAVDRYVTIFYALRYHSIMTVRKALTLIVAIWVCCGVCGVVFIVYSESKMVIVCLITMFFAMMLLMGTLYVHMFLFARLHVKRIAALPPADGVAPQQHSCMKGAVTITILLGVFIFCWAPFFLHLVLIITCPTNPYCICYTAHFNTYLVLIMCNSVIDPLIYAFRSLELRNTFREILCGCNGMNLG

efflux ratio at 150 min, 2 μM (MDR1): 0.98 | Papp A→B at 150 min, 2 μM (MDR1; pH 7.40): 13.5 ×10⁻⁶ cm/s | Papp B→A at 150 min, 2 μM (MDR1; pH 7.40): 13.2 ×10⁻⁶ cm/s | EC50 (MC3R): 4.21 µM
SMILES: C[C@@H]1CN(C(=O)[C@@H]2CN(C3CCOCC3)C[C@H]2c2ccc(F)cc2F)C[C@H](C)N1c1ccc(F)cc1 (single isomer, unassigned) [Compound 7]
Rating (MDR1-MDCKII cells): High permeability,; also recorded: low efflux
